Columns and labels:
breast cancer cells = test system: breast cancer cells; parameters: method as in PMID 18425349; conditions: by modulating AP-1 and NF-κB signaling; cited from earlier work
[1] = Pharmacokinetic analysis of TEF in terms of GA-H after oral administration to rats (HPLC of plasma and urine); format: in vivo, Albino Wistar rats; parameters: rate of elimination (Kel): unit not given here
Protocol: Alliance HPLC system (e2695 Separation module, Waters, Milford, MA, USA) with a gradient pump integrated with adjustable wavelength programmable photodiode array detector (PDA) was employed for analysis. Chromatographic separation was executed on Hupersil […] C18 (ODS) column (150 × 4.6 mm, Phenomenex, Torrance, CA, USA), using mobile phase composed of 0.5% v/v formic acid in water (A) and methanol (B). Solvents were eluted at a flow rate of 1.0 mL/min in gradient elution program (initially 100% A, 0–5 min 90% A, 5–10 min 70% A, 10–15 min 30% A, 15–20 min 2% A, and 20–22 min 100% A). Detection was carried out in a scanning mode with 3D channel at a wavelength of 254 nm. Total run time was 25 min. The identity of the compounds was established by comparing retention time of analytical standards. The proposed developed method was further validated as per the AOAC guidelines.
Albino Wistar rats (8 weeks old, 180 ± 20 g) were obtained from the Central Animal House Facility of Jamia Hamdard. Animal housing and handling were executed in accordance with the Good Laboratory Practice (GLP) mentioned in CPCSEA guidelines. All experimental protocols were reviewed and approved by the Institutional Animal Ethics Committee (Registration No 173/GO/RE/S/2000/CPCSEA; approval number 1472). All animals were housed in polypropylene cages (not more than three animals per cage) with proper water and feed and were allowed to acclimatize with specified conditions (25 ± 3 °C and 60 ± 5%RH) for a week before the experiment. […] After oral administration, blood samples were collected from retro-orbital plexus by using heparinized capillaries at 0 (pre-dose), 0.5, 1, 1.5, 2, 4, 6, 8, 10, 12, 16, 24, and 30 h. Blood samples were collected in EDTA tubes and centrifuged at 7000 rpm to get plasma. The separated plasma was stored at −60 °C until analysis. […] The collected urine from each animal was pooled for analysis.
Liquid–liquid extraction was used for extraction of GA-H from plasma. In 100 µL of plasma, 500 µL of ice-cold methanol was added, vortexed, and incubated at −60 °C for 8 h. After incubation, it was brought to room temperature and centrifuged at 10,000 rpm for 10 min. The supernatant was separated and dried by passing […]. The dried extract was re-suspended with 100 μL of LC–MS grade methanol, sonicated for 10 min, centrifuged at 14,000 rpm for 10 min, supernatant separated, and then transferred into sample vials having insert for analysis. Similar sample preparation protocol and storage conditions were used for urine through liquid–liquid extraction.
The maximum plasma concentration (Cmax) and time to attain maximum concentration (Tmax) were directly assessed by plasma concentration–time graph. Other pharmacokinetic parameters, such as AUC, AUC0–t, AUC0–∞, half-life (t1/2), elimination rate constant (Kel), and volume of distribution (Vd), were calculated from plasma concentration vs. time profile response curve by non-compartmental analysis, using software Pkf Excel plug-in program.

[2] = In vivo pattern recognition of TEF: UPLC–MS metabolic profiling of blood after oral administration; parameters: species or system rats; conditions: for Metabolites Pattern in TEF and Blood (Abundance): UPLC–MS abundance of mass; for bioavailability (absorbed in systemic circulation) of TEF constituent: after oral administration of TEF to rats, in words
Protocol: For in vivo pattern recognition of TEF, it was orally administered to rats. After its oral administration, blood samples were collected at different time intervals. Prepared plasma samples of pharmacokinetic analysis (0.5, 1, 3, 6, 12, 24, 48, and 72 h) were used for this study. Samples were analyzed by ultra-performance liquid chromatography–mass spectrometry (UPLC–MS) analysis. The UPLC–MS was performed on Water’s ACQUITY UPLCTM system (Waters Corp., Milford, MA, USA) equipped with a binary solvent delivery system, an autosampler, column manager, and a tunable MS detector (Synapt; Waters, Manchester, UK). Chromatographic separation was performed on a Water’s ACQUITY UPLC^TM BEH C18 (100.0 × 2.1 mm × 1.7 μm) column. The mobile phase used for chromatographic separation was 0.05% (v/v) formic acid in water (A) and 0.05% (v/v) formic acid in acetonitrile (B). […] The flow rate of mobile phase was 0.5 mL/min, and column temperature was set at 25 °C throughout the run time. The mass spectrometry was performed on a quadrupole orthogonal acceleration time of flight tandem mass spectrometer (Waters Q-TOF, Manchester, UK). The nebulizer gas was set to 500 L/h, the cone gas was set to 50 L/h, and the source temperature was set to 100 °C. The capillary voltage was set to 3.0 kV, and the sample cone voltage was set to […]. Argon was employed as the collision gas at a pressure of 5.3 × 10^−5 Torr. The Q-TOF was operated in positive mode with […] and 0.02 s inter-scan delay. The accurate mass and composition for the precursor ions and the fragment ions were calculated by using MassLynx v 4.1 software incorporated with the instrument. Compounds were tentatively identified from database by comparing their reported m/z values with experimental values. Focus was given to the mass ranges from 130 to 600 m/z for lanosterol type triterpenoids and general terpene hydrocarbon. The databases used for identification of compounds were MassBank and HMDB.
Metabolomic comparison was performed with respect to analysis of TEF. For that, dried TEF was dissolved in LC–MS grade methanol and analyzed with same conditions used for plasma sample analysis. […] This metabolomic analysis was based on metabolites absorbed in blood after oral administration.

[3] = Albino Wistar, rat, plasma, po, 85 mg/kg
[4] = GA-H in rat plasma after oral TEF 85 mg/Kg
[5] = GA-H, rats, oral TEF 85 mg/Kg, non-compartmental analysis
[6] = blood 0.5 h after oral TEF to rats
[7] = blood 1 h after oral TEF to rats
[8] = blood 3 h after oral TEF to rats
[9] = blood 6 h after oral TEF to rats
[10] = blood 12 h after oral TEF to rats
[11] = blood 24 h after oral TEF to rats
[12] = blood 48 h after oral TEF to rats
[13] = blood 72 h after oral TEF to rats

| bioavailability (absorbed in systemic circulation) of TEF constituent [2] | Metabolites Pattern in TEF and Blood (Abundance) [2, 11] | Metabolites Pattern in TEF and Blood (Abundance) [2, 12] | Metabolites Pattern in TEF and Blood (Abundance) [2, 13] | Structure (SMILES) | effect on growth and invasive behavior of breast cancer cells (breast cancer cells) | Metabolites Pattern in TEF and Blood (Abundance) [2, 7] | Metabolites Pattern in TEF and Blood (Abundance) [2, 8] | Metabolites Pattern in TEF and Blood (Abundance) [2, 9] | Metabolites Pattern in TEF and Blood (Abundance) [2, 10] | also measured |
| --- | --- | --- | --- | --- | --- | --- | --- | --- | --- | --- |
| bioavailable | 21,324 | 24,569 | 22,345 | OC[C@H]1OC(c2c(O)cc3c(c2O)C[C@@H](O)[C@@H](c2ccc(O)c(O)c2)O3)[C@H](O)[C@@H](O)[C@@H]1O (some centres unmarked) [Epicatechin-6-glucoside] |  | 36,783 | 25,056 | 26,578 | 22,346 | Metabolites Pattern in TEF and Blood (Abundance) [2, 6]: 19,876 |
| bioavailable | 12,112 | 8453 | 5641 | CCCCC/C=C\C/C=C\CCCCCCCC(=O)O [Linoleic acid] |  |  | 23,451 | 21,543 | 18,756 |  |
| absorbed in the systemic circulation |  |  |  | NC(=O)CC[C@H](N=C/C=C1/C=C(C(=O)O)N[C@H](C(=O)O)C1)C(=O)O [Glutamine-betaxanthin] |  |  |  |  |  |  |

Continued, compound first:

| Structure (SMILES) | bioavailability (absorbed in systemic circulation) of TEF constituent [2] | Metabolites Pattern in TEF and Blood (Abundance) [2, 11] | Metabolites Pattern in TEF and Blood (Abundance) [2, 12] | Metabolites Pattern in TEF and Blood (Abundance) [2, 13] | effect on growth and invasive behavior of breast cancer cells (breast cancer cells) | Metabolites Pattern in TEF and Blood (Abundance) [2, 7] | Metabolites Pattern in TEF and Blood (Abundance) [2, 8] | Metabolites Pattern in TEF and Blood (Abundance) [2, 9] | Metabolites Pattern in TEF and Blood (Abundance) [2, 10] | also measured |
| --- | --- | --- | --- | --- | --- | --- | --- | --- | --- | --- |
| CC(=O)O[C@@H]1C(=O)C2=C(C(=O)C[C@H]3C(C)(C)[C@@H](O)CC[C@]23C)[C@]2(C)C(=O)C[C@H]([C@H](C)CC(=O)CC(C)C(=O)O)[C@@]12C (some centres unmarked) [GA-H, ganoderic acid H] |  |  |  |  | suppress the growth and invasive behavior | 45,675 | 54,675 | 32,456 | 24,978 | AUC(0-inf) [1, 3]: 9840 ± 157 ng·h/mL; AUC(0-t) [1, 3]: 9800 ± 170 ng·h/mL; half-life ([1]; Albino Wistar, rat, plasma, po, 85 mg/kg, read-out: half-life in blood (converted)): 13.2 h; Cmax ([1]; Albino Wistar, rat, plasma, po, 85 mg/kg, read-out: maximum plasma concentration (Cmax)): 2510 ng/mL; MRT ([1]; Albino Wistar, rat, plasma, po, 85 mg/kg, read-out: mean residence time in blood): 5.42 h; relative exposure AUC0–∞/D [1, 4]: 1968.9 ± 32.5 ng·h/mL/mg; relative exposure Cmax/D [1, 4]: 501.9 ± 25.4 ng/mL/mg; time to peak plasma concentration (Tmax) [1, 4]: approximately one; time up to which a quantifiable amount was sustained in plasma ([1]; GA-H, rats, oral TEF): up to 12 h; rate of elimination (Kel) ([1]; GA-H, rats, oral TEF 85 mg/Kg): 0.05; clearance (CL) [1, 5]: 507.9 ± 25.6 mL/h; volume of distribution (Vd) [1, 5]: 9660.3 ± 111.5 mL; detection in urine ([1]; rat urine collected at 4, 12 and 24 h after oral TEF, pooled): no GA-H was detected; Metabolites Pattern in TEF and Blood (Abundance) [2, 6]: 35,876 |
| CC(CC(=O)C[C@@H](C)[C@H]1CC(=O)[C@@]2(C)C3=C(C(=O)C[C@]12C)[C@@]1(C)CCC(=O)C(C)(C)[C@@H]1C[C@@H]3O)C(=O)O (some centres unmarked) [Ganoderic acid D] |  | 21,234 |  |  |  | 36,786 | 37,654 | 27,689 | 26,657 |  |
| CC(C)CCCCCCCCCCCC(=O)O [13-methylmyristic acid] | bioavailable | 16,734 | 9835 | 5642 |  |  | 23,412 | 25,473 | 21,675 |  |
| CC(=O)O[C@@H]1C(=O)C2=C(C(=O)C[C@H]3C(C)(C)C(=O)CC[C@]23C)[C@]2(C)C(=O)C[C@H]([C@H](C)CC(=O)CC(C)C(=O)O)[C@@]12C (some centres unmarked) [GA-F, ganoderic acid F] |  |  |  |  | suppress the growth and invasive behavior |  |  |  |  |  |
| C[C@H](CC(=O)C[C@@H](C)[C@H]1C[C@H](O)[C@@]2(C)C3=C(C(=O)C[C@]12C)[C@@]1(C)CCC(=O)C(C)(C)[C@@H]1C[C@@H]3O)C(=O)O [Ganoderic acid A] | bioavailable | 21,548 |  |  | suppress the growth and invasive behavior | 45,647 | 37,652 | 29,143 | 22,987 |  |

— PMC8876931, “Pharmacokinetic, Metabolomic, and Stability Assessment of Ganoderic Acid H Based Triterpenoid Enriched Fraction of Ganoderma lucidum P. Karst” (Metabolites, 2022)
